Where a name gives a salt, the structure may show the parent alone. Read-outs that look alike come from different tables or passages of the source.
System: centipedegrass
Conditions: for centipedegrass injury: dicamba alone, 0 to 10 scale; for Observed Injury: 0-10 scale, 0=no injury, 10=death
Protocol: A trial was initiated Apr. […] Research was conducted as a randomized complete block design (4 reps), with plot size equal to 6 square meters (2 meter width and 3 meter length). This provided a roughly 1.5 foot buffer between experimental units for reference. Herbicide treatments were applied within a water carrier volume of 40 gallons/acre. A two inch rainfall occurred 48 hours prior to initiation (April 17). Time to next rainfall: roughly 1 inch fell during the late night hours of the 21st and early morning of 22nd. Centipedegrass was approximately 90% green cover at time of treatment-almost fully transitioned from winter dormancy. […] Turf injury (0-10 scale, 0=no injury, 10=death), color (1-9 scale, 1=brown, 9=dark green), and density (0-100%) were evaluated 5, 8, 13, 23, 29 and 44 days after treatment (DAT). Data were subject to analysis of variance (alpha=0.05). Means separations were estimated using Student Knewman Keul's test (alpha=0.05) within ARM v.

With COc1c(Cl)ccc(Cl)c1C(=O)O [Dicamba MIBPA, N,N-bis(3-aminopropyl)methylamine salt (MIBPA) of dicamba] the centipedegrass injury (23 DAT, regardless of rate) was < 0.8, the centipedegrass injury (29 DAT, across all rates) was 0 and the “Observed Injury” value (Dicamba MIBPA 0.12 lb ae/a alone, 5 DAA) was 0.0. The “Observed Injury” value (Dicamba MIBPA 0.12 lb ae/a alone, 8 DAA) was 0.0, the “Observed Injury” value (Dicamba MIBPA 0.12 lb ae/a alone, 13 DAA) was 0.0 and the “Observed Injury” value (Dicamba MIBPA 0.12 lb ae/a alone, 23 DAA) was 0.38. The “Observed Injury” value (Dicamba MIBPA 0.12 lb ae/a alone, 29 DAA) was 0.00, the “Observed Injury” value (Dicamba MIBPA 0.12 lb ae/a alone, 44 DAA) was 0.25 and the “Observed Injury” value (Dicamba MIBPA 0.24 lb ae/a alone, 5 DAA) was 0.0. For the same compound, the “Observed Injury” value (Dicamba MIBPA 0.24 lb ae/a alone, 8 DAA) was 0.0, the “Observed Injury” value (Dicamba MIBPA 0.24 lb ae/a alone, 13 DAA) was 0.0 and the “Observed Injury” value (Dicamba MIBPA 0.24 lb ae/a alone, 23 DAA) was 0.38. For the same compound, the “Observed Injury” value (Dicamba MIBPA 0.24 lb ae/a alone, 29 DAA) was 0.00, the “Observed Injury” value (Dicamba MIBPA 0.24 lb ae/a alone, 44 DAA) was 0.38 and the “Observed Injury” value (Dicamba MIBPA 0.36 lb ae/a alone, 5 DAA) was 0.0. The “Observed Injury” value (Dicamba MIBPA 0.36 lb ae/a alone, 8 DAA) was 0.0, the “Observed Injury” value (Dicamba MIBPA 0.36 lb ae/a alone, 13 DAA) was 0.0 and the “Observed Injury” value (Dicamba MIBPA 0.36 lb ae/a alone, 23 DAA) was 0.75. For the same compound, the “Observed Injury” value (Dicamba MIBPA 0.36 lb ae/a alone, 29 DAA) was 0.00 and the “Observed Injury” value (Dicamba MIBPA 0.36 lb ae/a alone, 44 DAA) was 0.50.
